Assay [1] relates to human CD4+ T cells. Kind of assay: Human CD4+ T-cell proliferation assay (CFSE, CD3/28 beads). As to conditions: read-out: Proliferation IC50.
The target of assay [2] is T1, MTHFD1 recombinant human enzyme (Homo sapiens, UniProt P11586).
T1 sequence (P11586 2-291 limits assumed): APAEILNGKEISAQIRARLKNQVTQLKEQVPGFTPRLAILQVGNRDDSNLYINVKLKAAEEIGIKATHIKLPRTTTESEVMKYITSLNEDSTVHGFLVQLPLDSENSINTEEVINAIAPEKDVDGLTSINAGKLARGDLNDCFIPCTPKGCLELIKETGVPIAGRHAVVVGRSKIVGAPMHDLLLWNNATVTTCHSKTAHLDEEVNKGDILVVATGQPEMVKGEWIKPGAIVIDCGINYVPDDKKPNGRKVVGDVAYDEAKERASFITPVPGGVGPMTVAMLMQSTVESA
Put plainly: MTHFD1 inhibition assay (NAD(P)H-Glo luminescence). As to conditions: MTHFD1 IC50, recombinant human enzyme 200 nM, NADP, band.

In assay [3] the target is T2, MTHFD2 recombinant human enzyme (Homo sapiens, UniProt P13995).
T2 sequence (P13995 36-350): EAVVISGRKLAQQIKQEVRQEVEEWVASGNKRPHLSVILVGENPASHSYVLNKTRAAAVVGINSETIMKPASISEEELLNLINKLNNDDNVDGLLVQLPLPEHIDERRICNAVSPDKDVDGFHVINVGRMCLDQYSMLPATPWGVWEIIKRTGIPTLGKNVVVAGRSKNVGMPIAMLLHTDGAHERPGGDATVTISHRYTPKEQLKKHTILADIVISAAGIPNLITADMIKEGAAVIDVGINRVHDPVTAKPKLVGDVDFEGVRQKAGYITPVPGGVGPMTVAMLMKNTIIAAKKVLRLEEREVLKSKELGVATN
Kind of assay: MTHFD2 inhibition assay (NAD(P)H-Glo luminescence). As to conditions: for MTHFD1/MTHFD2 IC50 ratio: selectivity of MTHFD2 inhibition over MTHFD1, band.

As to `COC[C@H]1CN(c2cc(C)c3c4c(c(=O)oc3c2C)CN(C(=O)c2ccc(C(=O)NS(=O)(=O)N3CC5CCCCC5C3)cc2)CC4)CCN1C` (stereo partly drawn) [Example 211, 4-(8-((R)-3-(methoxymethyl)-4-methylpiperazin-1-yl)-7,10-dimethyl-5-oxo-1,3,4,5-tetrahydro-2H-chromeno[3,4-c]pyridine-3-carbonyl)-N-((octahydro-2H-isoindol-2-yl)sulfonyl)benzamide], the IC50 in assay [1] is 1 to 5 µM; in assay [2], 1 to 5 µM; in assay [3], 0.01 to 0.1 µM. For the same molecule, in assay [3], the “MTHFD1/MTHFD2 IC50 ratio” value is “H (>9.0 to 30)”.
On to `CCOc1cc(C(=O)N2CCc3c(c(=O)oc4c(C)c(N5CCN(C)[C@@H](COC)C5)cc(C)c34)C2)c(F)cc1C(=O)NS(=O)(=O)N(C1CC1)C1CC1` [Example 216, (R)-N-(N,N-dicyclopropylsulfamoyl)-2-ethoxy-5-fluoro-4-(8-(3-(methoxymethyl)-4-methylpiperazin-1-yl)-7,10-dimethyl-5-oxo-1,3,4,5-tetrahydro-2H-chromeno[3,4-c]pyridine-3-carbonyl)benzamide], for which the IC50 fell in the range of 0.01 to 0.03 µM in assay [1], 0.1 to 1 µM in assay [2] and 0.01 to 0.1 µM in assay [3]. Further, the “MTHFD1/MTHFD2 IC50 ratio” value in assay [3] is listed as “G (^ 3 to 9.0)”.
The matching figures for `CCOc1cc(C(=O)N2CCc3c(c(=O)oc4c(C)c(N5CCN(C)[C@@H](COC)C5)cc(C)c34)C2)c(F)cc1C(=O)NS(=O)(=O)N1CCC(C)(C)C1` [Example 217, (R)-N-((3,3-dimethylpyrrolidin-1-yl)sulfonyl)-2-ethoxy-5-fluoro-4-(8-(3-(methoxymethyl)-4-methylpiperazin-1-yl)-7,10-dimethyl-5-oxo-1,3,4,5-tetrahydro-2H-chromeno[3,4-c]pyridine-3-carbonyl)benzamide]: 0.01 to 0.03 µM, 0.1 to 1 µM, 0.01 to 0.1 µM and “G (^ 3 to 9.0)”.
The matching figures for `CCOc1cc(C(=O)N2CCc3c(c(=O)oc4c(C)c(N5CCN(C)[C@@H](COC)C5)cc(C)c34)C2)c(F)cc1C(=O)NS(=O)(=O)N1C2CCC1CC2` [Example 218, (R)-N-((7-azabicyclo[2.2.1]heptan-7-yl)sulfonyl)-2-ethoxy-5-fluoro-4-(8-(3-(methoxymethyl)-4-methylpiperazin-1-yl)-7,10-dimethyl-5-oxo-1,3,4,5-tetrahydro-2H-chromeno[3,4-c]pyridine-3-carbonyl)benzamide]: 0.03 to 0.1 µM, 0.1 to 1 µM, 0.01 to 0.1 µM and “H (>9.0 to 30)”.
In the case of `CCOc1cc(C(=O)N2CCc3c(c(=O)oc4c(C)c(N5CCN(C)[C@@H](COC)C5)cc(C)c34)C2)c(F)cc1C(=O)NS(=O)(=O)N1CC2CC2C1` (stereo partly drawn) [Example 219, N-((3-azabicyclo[3.1.0]hexan-3-yl)sulfonyl)-2-ethoxy-5-fluoro-4-(8-((R)-3-(methoxymethyl)-4-methylpiperazin-1-yl)-7,10-dimethyl-5-oxo-1,3,4,5-tetrahydro-2H-chromeno[3,4-c]pyridine-3-carbonyl)benzamide], the IC50 was in the range of 0.01 to 0.03 µM in assay [1], 0.01 to 0.1 µM in assay [2] and 0.01 to 0.1 µM in assay [3]. In assay [3], the “MTHFD1/MTHFD2 IC50 ratio” value is on record as “G (^ 3 to 9.0)”.
As for `CCOc1cc(C(=O)N2CCc3c(c(=O)oc4c(C)c(N5CCN(C)[C@@H](COC)C5)cc(C)c34)C2)c(F)cc1C(=O)NS(=O)(=O)N1C2CCC1COC2` [Example 221, N-((3-oxa-8-azabicyclo[3.2.1]octan-8-yl)sulfonyl)-2-ethoxy-5-fluoro-4-(8-((R)-3-(methoxymethyl)-4-methylpiperazin-1-yl)-7,10-dimethyl-5-oxo-1,3,4,5-tetrahydro-2H-chromeno[3,4-c]pyridine-3-carbonyl)benzamide], the IC50 was 0.03 to 0.1 µM in assay [1], 0.1 to 1 µM in assay [2] and 0.01 to 0.1 µM in assay [3]. Further, the “MTHFD1/MTHFD2 IC50 ratio” value in assay [3] is “H (>9.0 to 30)”.
The matching figures for `CCOc1c(C(=O)N2CCc3c(c(=O)oc4c(C)c(N5CCN(C)[C@@H](COC)C5)cc(C)c34)C2)ccc(C(=O)NS(=O)(=O)N2CCCC2)c1F` [Example 223, (R)-3-ethoxy-2-fluoro-4-(8-(3-(methoxymethyl)-4-methylpiperazin-1-yl)-7,10-dimethyl-5-oxo-1,3,4,5-tetrahydro-2H-chromeno[3,4-c]pyridine-3-carbonyl)-N-(pyrrolidin-1-ylsulfonyl)benzamide]: 0.001 to 0.01 µM, 0.001 to 0.01 µM, 0.001 to 0.01 µM and “F (<3)”.
`COC[C@H]1CN(c2cc(C)c3c4c(c(=O)oc3c2C)CN(C(=O)c2cc(OC)c(C(=O)NS(=O)(=O)N3CCCC3)cc2F)CC4)CCN1C` [Example 224, (R)-5-fluoro-2-methoxy-4-(8-(3-(methoxymethyl)-4-methylpiperazin-1-yl)-7,10-dimethyl-5-oxo-1,3,4,5-tetrahydro-2H-chromeno[3,4-c]pyridine-3-carbonyl)-N-(pyrrolidin-1-ylsulfonyl)benzamide]: the IC50 in assay [1] was in the range of 0.03 to 0.1 µM; in assay [2], 0.1 to 1 µM; in assay [3] it was 0.001 to 0.01 µM. Besides, in assay [3], the “MTHFD1/MTHFD2 IC50 ratio” value is on record as “J (>30)”.
The matching figures for `[2H]C([2H])([2H])Oc1cc(C(=O)N2CCc3c(c(=O)oc4c(C)c(N5CCN(C)[C@@H](COC)C5)cc(C)c34)C2)c(F)cc1C(=O)NS(=O)(=O)N1CCCC1` [Example 225, (R)-5-fluoro-2-(methoxy-d3)-4-(8-(3-(methoxymethyl)-4-methylpiperazin-1-yl)-7,10-dimethyl-5-oxo-1,3,4,5-tetrahydro-2H-chromeno[3,4-c]pyridine-3-carbonyl)-N-(pyrrolidin-1-ylsulfonyl)benzamide]: 0.03 to 0.1 µM, 0.1 to 1 µM, 0.001 to 0.01 µM and “J (>30)”.
As for `COC[C@H]1CN(c2cc(C)c3c4c(c(=O)oc3c2C)CN(C(=O)c2ccc(C(=O)NS(=O)(=O)N3C5CCC3CC5)c(OC)c2)CC4)CCN1C` [Example 226, (R)-N-((7-azabicyclo[2.2.1]heptan-7-yl)sulfonyl)-2-methoxy-4-(8-(3-(methoxymethyl)-4-methylpiperazin-1-yl)-7,10-dimethyl-5-oxo-1,3,4,5-tetrahydro-2H-chromeno[3,4-c]pyridine-3-carbonyl)benzamide], the IC50 lay in the range of 0.03 to 0.1 µM in assay [1], 0.1 to 1 µM in assay [2] and 0.01 to 0.1 µM in assay [3]. Also, the “MTHFD1/MTHFD2 IC50 ratio” value in assay [3] is on record as “J (>30)”.
The matching figures for `CCOc1c(C(=O)NS(=O)(=O)N2C3CCC2CC3)ccc(C(=O)N2CCc3c(c(=O)oc4c(C)c(N5CCN(C)[C@@H](COC)C5)cc(C)c34)C2)c1F` [Example 228]: 0.001 to 0.01 µM, 0.1 to 1 µM, 0.01 to 0.1 µM and “G (^ 3 to 9.0)”.
The matching figures for `COC[C@H]1CN(c2cc(C)c3c4c(c(=O)oc3c2C)CN(C(=O)c2ccc(C(=O)NS(=O)(=O)N3C5CCC3CC5)c(C)c2F)CC4)CCN1C` [Example 241]: 0.1 to 1 µM, 0.1 to 1 µM, 0.01 to 0.1 µM and “H (>9.0 to 30)”.
For `CCOc1cc(C(=O)N2CCc3c(c(=O)oc4c(C)c(N5CCN(C)[C@@H](COC)C5)cc(CC)c34)C2)c(F)cc1C(=O)NS(=O)(=O)N1CCCC1` [Example 244, (R)-2-ethoxy-4-(10-ethyl-8-(3-(methoxymethyl)-4-methylpiperazin-1-yl)-7-methyl-5-oxo-1,3,4,5-tetrahydro-2H-chromeno[3,4-c]pyridine-3-carbonyl)-5-fluoro-N-(pyrrolidin-1-ylsulfonyl)benzamide], in that order: 0.1 to 1 µM, 0.1 to 1 µM, 0.01 to 0.1 µM and “J (>30)”.
`CCc1cc(N2CCN(C)[C@@H](COC)C2)c(C)c2oc(=O)c3c(c12)CCN(C(=O)c1cc(N(C)C)c(C(=O)NS(=O)(=O)N2CCCC2)cc1F)C3` [Example 245, (R)-2-(dimethylamino)-4-(10-ethyl-8-(3-(methoxymethyl)-4-methylpiperazin-1-yl)-7-methyl-5-oxo-1,3,4,5-tetrahydro-2H-chromeno[3,4-c]pyridine-3-carbonyl)-5-fluoro-N-(pyrrolidin-1-ylsulfonyl)benzamide]: the IC50 was in the range of 0.03 to 0.1 µM in assay [1], 1 to 5 µM in assay [2] and 0.001 to 0.01 µM in assay [3]. Besides, the “MTHFD1/MTHFD2 IC50 ratio” value in assay [3] is given as “J (>30)”.
For `[2H]C([2H])([2H])Oc1cc(C(=O)N2CCc3c(c(=O)oc4c(C)c(N5CCN(C)[C@@H](COC)C5)cc(Cl)c34)C2)c(F)cc1C(=O)NS(=O)(=O)N1CCCC1` [Example 246, (R)-4-(10-chloro-8-(3-(methoxymethyl)-4-methylpiperazin-1-yl)-7-methyl-5-oxo-1,3,4,5-tetrahydro-2H-chromeno[3,4-c]pyridine-3-carbonyl)-5-fluoro-2-(methoxy-d3)-N-(pyrrolidin-1-ylsulfonyl)benzamide], in that order: 0.1 to 1 µM, 0.1 to 1 µM, 0.001 to 0.01 µM and “J (>30)”.

The values above are taken from patent publication US12662489B2 (Sitryx Therapeutics Limited, priority 2023, dated 2026).
